Results on one compound are retold here after ChEMBL document CHEMBL5131515, “Identification of Pyridinyltriazine Derivatives as Potent panFGFR Inhibitors against Gatekeeper Mutants for Overcoming Drug Resistance” (J Med Chem, 2022).

Data set [1] deals with KMS-11. Put plainly: Antiproliferative activity against human KMS-11 cells harboring FGFR3 Y373C mutant assessed as cell growth inhibition by CellTiter-Glo assay. It counts as functional. A general note: In ATP-based viability assays light output follows the ATP content of the culture.
Data set [2] can be described thus: Stability in dog liver microsomes assessed as parent compound remaining at 1 uM incubated for 30 mins. It is filed as ADME, Canis lupus familiaris, Microsome. Conditions: read-out: Stability. Background: Microsomes from liver hold many membrane-bound enzymes, among them those of drug oxidation.
Data set [3] has as its target CYP2C9 (Homo sapiens, UniProt P11712). Description: Inhibition of CYP2C9 (unknown origin) assessed as remaining activity at 10 uM relative to control. Conditions: read-out: Activity. It is filed as ADME.
The test system of data set [4] is BaF3. Put plainly: Antiproliferative activity against mouse BaF3 cells harboring TEL-FGFR4 V550E mutant assessed as cell growth inhibition by CellTiter-Glo assay. It counts as functional.
Data set [5] can be described thus: Stability in mouse liver microsomes assessed as parent compound remaining at 1 uM incubated for 30 mins. Conditions: read-out: Stability. It is filed as ADME, Microsome.
Data set [6] in a line: Stability in rat liver microsomes assessed as parent compound remaining at 1 uM incubated for 30 mins. It is filed as ADME, Microsome. Conditions: read-out: Stability.
Data set [7] has as its system BaF3. Description: Antitumor activity against mouse BaF3 cells harboring TEL-V555M-FGFR3 mutant xenografted in BALB/c mouse assessed as tumor mean volume at 30 mg/kg, ip qd for 15 days measured once every 2 days (reference value: 100%). It is filed as functional. Conditions: time 15 day.
Data set [8] in a line: Stability in human liver microsomes assessed as parent compound remaining at 1 uM incubated for 30 mins. It counts as ADME, Microsome. Conditions: read-out: Stability.
For data set [9], the target named is T1, CYP1A2 (Homo sapiens, UniProt P05177).
T1 sequence (P05177 whole entry): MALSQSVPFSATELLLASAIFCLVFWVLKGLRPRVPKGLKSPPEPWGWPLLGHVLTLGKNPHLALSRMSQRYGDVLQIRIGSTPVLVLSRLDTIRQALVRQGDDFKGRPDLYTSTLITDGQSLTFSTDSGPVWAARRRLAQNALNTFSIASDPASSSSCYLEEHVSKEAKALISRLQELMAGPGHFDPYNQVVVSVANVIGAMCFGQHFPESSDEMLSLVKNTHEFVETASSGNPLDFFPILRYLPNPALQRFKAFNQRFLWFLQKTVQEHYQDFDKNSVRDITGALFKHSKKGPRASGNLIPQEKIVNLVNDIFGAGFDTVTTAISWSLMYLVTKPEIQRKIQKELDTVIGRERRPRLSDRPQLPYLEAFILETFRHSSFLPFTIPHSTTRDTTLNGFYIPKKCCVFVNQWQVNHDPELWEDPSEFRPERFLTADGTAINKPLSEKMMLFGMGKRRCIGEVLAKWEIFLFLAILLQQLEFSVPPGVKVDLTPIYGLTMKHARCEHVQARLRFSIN
Description: Inhibition of CYP1A2 (unknown origin) assessed as remaining activity at 10 uM relative to control. It is filed as ADME. Conditions: read-out: Activity.

The subject of data set [10] is BaF3. Description: Antiproliferative activity against mouse BaF3 cells harboring TEL-FGFR3 assessed as cell growth inhibition by CellTiter-Glo assay. It counts as functional.
Data set [11] deals with CYP3A4 (Homo sapiens, UniProt P08684). Put plainly: Inhibition of CYP3A4 (unknown origin) assessed as remaining activity at 10 uM relative to control. Conditions: read-out: Activity. It counts as ADME.
In data set [12] the test system is AN3-CA. Put plainly: Antitumor activity against human AN3-CA cells xenografted in BALB/c mouse assessed as tumor mean volume at 10 mg/kg, po qd for 15 days measured once every 2 days (reference value: 100%). It counts as functional. Conditions: time 15 day. (In general: A xenograft is tissue or cells of one species grown in another, often human tumour cells in immunodeficient mice.)

For data set [13], the target named is CYP2C19 (Homo sapiens, UniProt P33261). Description: Inhibition of CYP2C19 (unknown origin) assessed as remaining activity at 10 uM relative to control. Conditions: read-out: Activity. It is filed as ADME.
The subject of data set [14] is Fibroblast growth factor receptor 2 (Homo sapiens), P21802 [V564F]. Put plainly: Inhibition of FGFR2 V564F mutant (unknown origin) at 10 uM by radiometric kinase activity assay relative to control.
Data set [15] can be described thus: Antiproliferative activity against mouse BaF3 cells assessed as cell growth inhibition by CellTiter-Glo assay. Conditions: BaF3 cells.
Data set [16] has as its system BaF3. Description: Antitumor activity against mouse BaF3 cells harboring TEL-V555M-FGFR3 mutant xenografted in BALB/c mouse assessed as tumor mean volume at 30 mg/kg, po qd for 15 days measured once every 2 days (reference value: 100%). It counts as functional. Conditions: time 15 day.
Data set [17] concerns J82. Description: Antiproliferative activity against human J82 cells harboring FGFR3 K652E mutant assessed as cell growth inhibition by CellTiter-Glo assay. It is filed as functional.
Data set [18] concerns AN3-CA. Put plainly: Antiproliferative activity against human AN3-CA cells harboring FGFR2 K310R/N549K mutant assessed as cell growth inhibition by CellTiter-Glo assay. It is filed as functional.
For data set [19], the system named is BaF3. Put plainly: cells. It is filed as functional. Conditions: Mus musculus.
Data set [20] concerns the target CYP2D6 (Homo sapiens, UniProt P10635). Put plainly: Inhibition of CYP2D6 (unknown origin) assessed as remaining activity at 10 uM relative to control. It is filed as ADME. Conditions: read-out: Activity.
Data set [21] relates to BaF3. Put plainly: Antitumor activity against mouse BaF3 cells harboring TEL-V555M-FGFR3 mutant xenografted in BALB/c mouse assessed as tumor growth inhibition at 30 mg/kg, ip qd for 15 days measured once every 2 days. It counts as functional. Conditions: BaF3, 360 h, time 15 day.
For data set [22], the system named is BaF3. Description: Antiproliferative activity against mouse BaF3 cells harboring TEL-FGFR4 N535K mutant assessed as cell growth inhibition by CellTiter-Glo assay. It is filed as functional.

Chain of CYP2C9 (P11712 whole entry): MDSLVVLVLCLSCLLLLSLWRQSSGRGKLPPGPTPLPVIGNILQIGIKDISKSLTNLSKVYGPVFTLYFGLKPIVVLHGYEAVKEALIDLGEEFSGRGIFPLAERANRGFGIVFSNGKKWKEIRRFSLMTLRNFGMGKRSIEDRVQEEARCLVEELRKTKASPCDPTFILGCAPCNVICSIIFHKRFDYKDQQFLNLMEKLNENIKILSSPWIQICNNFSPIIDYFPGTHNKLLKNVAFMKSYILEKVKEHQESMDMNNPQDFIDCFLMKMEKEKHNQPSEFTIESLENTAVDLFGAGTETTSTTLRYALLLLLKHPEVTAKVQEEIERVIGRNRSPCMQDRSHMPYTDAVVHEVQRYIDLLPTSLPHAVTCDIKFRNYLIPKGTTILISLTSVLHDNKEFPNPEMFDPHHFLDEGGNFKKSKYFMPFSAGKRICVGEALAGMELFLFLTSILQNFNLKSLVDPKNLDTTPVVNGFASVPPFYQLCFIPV
Chain of CYP2C19 (P33261 whole entry): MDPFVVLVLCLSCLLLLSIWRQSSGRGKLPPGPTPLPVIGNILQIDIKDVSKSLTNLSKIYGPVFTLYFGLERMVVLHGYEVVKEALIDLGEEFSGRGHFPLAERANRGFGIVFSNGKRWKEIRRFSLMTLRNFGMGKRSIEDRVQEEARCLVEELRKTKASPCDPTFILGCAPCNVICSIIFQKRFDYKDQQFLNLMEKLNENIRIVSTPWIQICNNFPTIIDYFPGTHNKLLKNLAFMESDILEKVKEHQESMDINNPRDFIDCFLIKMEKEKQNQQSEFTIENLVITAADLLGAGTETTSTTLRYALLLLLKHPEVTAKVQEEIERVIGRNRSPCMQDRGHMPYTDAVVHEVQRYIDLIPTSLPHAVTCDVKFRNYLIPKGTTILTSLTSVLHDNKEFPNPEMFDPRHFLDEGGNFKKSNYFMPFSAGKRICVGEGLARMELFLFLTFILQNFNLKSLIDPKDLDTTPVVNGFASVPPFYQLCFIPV
Chain of CYP3A4 (P08684 whole entry): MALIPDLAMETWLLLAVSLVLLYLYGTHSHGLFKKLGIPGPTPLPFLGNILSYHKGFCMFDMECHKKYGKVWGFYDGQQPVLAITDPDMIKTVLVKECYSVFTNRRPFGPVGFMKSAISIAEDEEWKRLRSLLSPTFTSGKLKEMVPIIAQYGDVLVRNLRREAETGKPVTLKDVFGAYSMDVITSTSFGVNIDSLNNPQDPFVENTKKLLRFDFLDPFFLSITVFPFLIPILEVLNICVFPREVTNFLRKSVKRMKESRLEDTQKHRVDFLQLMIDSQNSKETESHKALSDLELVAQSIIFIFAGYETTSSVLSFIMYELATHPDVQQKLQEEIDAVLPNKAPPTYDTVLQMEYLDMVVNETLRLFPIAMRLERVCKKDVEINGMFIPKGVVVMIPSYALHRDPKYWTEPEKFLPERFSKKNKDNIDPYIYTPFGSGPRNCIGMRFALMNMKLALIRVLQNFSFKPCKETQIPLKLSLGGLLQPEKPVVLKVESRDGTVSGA
Chain of Fibroblast growth factor receptor 2 (Homo sapiens), P21802 [V564F] (P21802 whole entry V564F): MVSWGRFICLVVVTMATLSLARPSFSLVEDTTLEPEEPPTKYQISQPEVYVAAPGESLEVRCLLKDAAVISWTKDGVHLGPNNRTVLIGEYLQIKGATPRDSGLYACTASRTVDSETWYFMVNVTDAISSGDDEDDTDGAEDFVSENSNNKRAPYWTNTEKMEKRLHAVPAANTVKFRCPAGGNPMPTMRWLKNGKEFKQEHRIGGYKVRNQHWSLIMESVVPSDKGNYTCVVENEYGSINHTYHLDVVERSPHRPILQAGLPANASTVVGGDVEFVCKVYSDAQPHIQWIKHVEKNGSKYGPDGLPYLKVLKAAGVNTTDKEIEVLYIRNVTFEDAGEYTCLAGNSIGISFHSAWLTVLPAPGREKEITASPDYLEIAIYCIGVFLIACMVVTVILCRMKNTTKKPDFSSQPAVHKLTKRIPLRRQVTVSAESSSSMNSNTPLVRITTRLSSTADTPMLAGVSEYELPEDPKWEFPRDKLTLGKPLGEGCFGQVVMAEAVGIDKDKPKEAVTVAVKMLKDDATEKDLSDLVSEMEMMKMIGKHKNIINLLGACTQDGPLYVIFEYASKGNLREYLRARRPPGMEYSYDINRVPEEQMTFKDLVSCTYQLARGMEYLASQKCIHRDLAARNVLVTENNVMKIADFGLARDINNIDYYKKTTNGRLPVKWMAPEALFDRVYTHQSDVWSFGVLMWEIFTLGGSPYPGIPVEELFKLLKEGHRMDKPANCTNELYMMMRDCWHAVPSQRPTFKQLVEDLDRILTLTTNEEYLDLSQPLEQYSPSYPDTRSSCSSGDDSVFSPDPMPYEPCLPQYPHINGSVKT
Chain of CYP2D6 (P10635 whole entry): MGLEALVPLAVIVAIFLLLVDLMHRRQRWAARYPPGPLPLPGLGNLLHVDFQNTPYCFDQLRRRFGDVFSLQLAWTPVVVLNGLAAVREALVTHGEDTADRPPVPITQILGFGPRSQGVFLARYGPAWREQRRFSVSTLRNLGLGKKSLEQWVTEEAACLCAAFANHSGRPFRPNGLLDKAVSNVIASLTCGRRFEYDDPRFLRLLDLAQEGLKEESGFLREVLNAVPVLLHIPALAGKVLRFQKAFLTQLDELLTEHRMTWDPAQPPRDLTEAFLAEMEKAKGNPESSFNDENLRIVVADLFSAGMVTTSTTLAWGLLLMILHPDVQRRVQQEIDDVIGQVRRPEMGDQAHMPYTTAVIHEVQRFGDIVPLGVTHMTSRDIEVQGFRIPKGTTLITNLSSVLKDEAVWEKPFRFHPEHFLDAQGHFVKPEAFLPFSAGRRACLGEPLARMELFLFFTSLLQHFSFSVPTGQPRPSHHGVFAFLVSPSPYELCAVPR

Broadly, the GI50 is the concentration at which growth is held to half of that of the control. What is called inhibition is how much of the control response was suppressed. A low value points to a response near the control. In general, inhibition in vivo refers to the change of the read-out against control, counted positive when it falls. For `CCN1CCN(c2ccc(Nc3cc(N(C)C(=O)Nc4c(Cl)c(OC)cc(OC)c4Cl)ncn3)cc2)CC1` [INFIGRATINIB], the GI50 was 220 nM in data set [1]; 4000 nM in data set [4]; 5 nM in data set [10]; above 5000 nM in [15]; 3340 nM in data set [17]; 39 nM in data set [18]. Further, the GI50 in data set [19] is 2600 nM; in data set [22], above 5000 nM. Moreover, the remaining at 0.5 h, 1 µM in data set [2] was found to be 8.1%; in data set [5], 22.3%; in data set [6] it was 10.9%; in [8], 77%. Besides, the activity at 10 µM in data set [3] was 88.4%; in data set [9], 77.3%; in data set [11] it was 83%; in data set [13], 64.9%; in data set [20] it was 94.9%. Besides, the Activity in data set [7] was 44.74%; in data set [12] it was 14.1%; in data set [16] it was 49%. Also, the inhibition in data set [14] was below 50%. In addition, in data set [21], the inhibition in vivo at 30 mg/kg amounted to 60.2%.
